Measurements as given in PMC13086964, “USP7 deubiquitinase stabilizes FAN1 to support DNA crosslink repair and suppress CAG repeat expansion” (Nature Communications, 2026).
Each block holds one compound with its values, some of them ahead of it. Where no end group is shown, it is not given here. The star is where a group is joined. FITC = O=C1OC2(c3ccc(O)cc3Oc3cc(O)ccc32)c2ccc(NC(=S)*)cc21; Biotin = O=C1N[C@H]2[C@H](CS[C@H]2CCCCC(=O)*)N1; Ahx = NCCCCCC(=O)O

Columns and labels:
USP7 TRAF (aa 2-207) = assay: fluorescence polarization assay, FITC-labelled FAN1-derived peptides; type: binding, human; settings: 8mer FITC-labelled peptides; 20 mM HEPES pH 7.4, 50 mM KCl, 1 mM TCEP, 0.005% Tween-20, 0.2% DMSO; USP7 TRAF 14-point 2-fold from 200 µM; 1 µL of 200 nM peptide added to 19 µL; n = 3
Method: Fig. 2 FAN1 associates with the TRAF-like and UBL domains of USP7. A Top: schematic representation of the human USP7 protein indicating point mutants. TRAF tumour necrosis factor receptor associated factor (orange), CD catalytic domain (cyan), UBL ubiquitin-like (yellow to brown). Bottom: HEK293^eGFP-FAN1 cells were transfected with either e.v. or the indicated FLAG-USP7 expression constructs. 24 h later, GFP-FAN1 expression was induced with Dox (100 ng/ml). 48 h post induction, cells were lysed and whole-cell extracts were subjected to IP using anti-FLAG M2 affinity resin. Inputs and recovered protein complexes were analysed by immunoblotting. Asterisk indicates IgG heavy chain from anti-FLAG M2 affinity resin. B Sequences of the biotinylated 12-mer FAN1-derived TRAF peptides. The corresponding amino acids are indicated. Key residues are highlighted in bold. B, C Biotinylated FAN1 TRAF peptides (10 µg) were immobilized on Strep-Tactin®XT-4Flow® resin and incubated with recombinant purified His-USP7. Inputs and recovered His-USP7 were analysed by immunoblotting. D Fluorescence polarization (FP) binding curves of FITC-labelled FAN1-derived 8mer peptides: wild-type (wt; black circle), P181A (green triangle), Q182A (orange diamond), S184A (red square). The corresponding amino acids are indicated. Key residues are highlighted in bold. FP was measured as a function of USP7-TRAF (aa 2–207) concentration. FP values were normalized by expressing the millipolarization (mP) of each sample relative to the corresponding wild-type peptide. Background signal was corrected by subtracting baseline FP measured in the absence of USP7-TRAF. […] Inputs and recovered protein complexes were analysed by immunoblotting. […]
USP7 TRAF (aa 2-207) was serially diluted (14-point, 2-fold) in assay buffer (20 mM HEPES (pH 7.4), 50 mM KCl, 1 mM TCEP, 0.005% Tween-20 (v/v), 0.2% DMSO (v/v)) from a top concentration of 200 µM. […] Fluorescence polarization (mP, millipolarization units) was measured using Agilent BioTek Synergy H1 with excitation 485 nm, emission 528 nm, gain 80, in a kinetic read (6 measurements in 30 min). […]

USP7 = assay: streptavidin pulldown of biotinylated FAN1 peptides with recombinant His-USP7; type: binding, human; settings: 10 µg peptide on Strep-Tactin XT 4Flow resin, 0.5 µg recombinant USP7, 2 h at 4 °C, immunoblot; for USP7 binding of biotinylated FAN1 UBL peptide: 13mer UBL peptides; for USP7 binding of biotinylated FAN1 peptide: 12mer TRAF peptides, repeated three times
Method: Fig. 2 FAN1 associates with the TRAF-like and UBL domains of USP7. A Top: schematic representation of the human USP7 protein indicating point mutants. TRAF tumour necrosis factor receptor associated factor (orange), CD catalytic domain (cyan), UBL ubiquitin-like (yellow to brown). Bottom: HEK293^eGFP-FAN1 cells were transfected with either e.v. or the indicated FLAG-USP7 expression constructs. 24 h later, GFP-FAN1 expression was induced with Dox (100 ng/ml). 48 h post induction, cells were lysed and whole-cell extracts were subjected to IP using anti-FLAG M2 affinity resin. Inputs and recovered protein complexes were analysed by immunoblotting. Asterisk indicates IgG heavy chain from anti-FLAG M2 affinity resin. B Sequences of the biotinylated 12-mer FAN1-derived TRAF peptides. The corresponding amino acids are indicated. Key residues are highlighted in bold. B, C Biotinylated FAN1 TRAF peptides (10 µg) were immobilized on Strep-Tactin®XT-4Flow® resin and incubated with recombinant purified His-USP7. Inputs and recovered His-USP7 were analysed by immunoblotting. D Fluorescence polarization (FP) binding curves of FITC-labelled FAN1-derived 8mer peptides: wild-type (wt; black circle), P181A (green triangle), Q182A (orange diamond), S184A (red square). The corresponding amino acids are indicated. Key residues are highlighted in bold. FP was measured as a function of USP7-TRAF (aa 2–207) concentration. FP values were normalized by expressing the millipolarization (mP) of each sample relative to the corresponding wild-type peptide. Background signal was corrected by subtracting baseline FP measured in the absence of USP7-TRAF. Data are presented as the means ± SD of three biological replicates (n = 3). E Top: schematic representation of the human USP7 protein indicating truncation mutants. TRAF tumour necrosis factor receptor associated factor, CD catalytic domain, UBL ubiquitin-like. HEK293^eGFP-FAN1 cells were transfected with either e.v. or the indicated FLAG-USP7 expression constructs. 24 h later, GFP-FAN1 expression was induced with Dox (100 ng/ml). 48 h post induction, cells were lysed and whole-cell extracts were subjected to IP using anti-FLAG M2 affinity resin. Inputs and recovered protein complexes were analysed by immunoblotting. Asterisk indicates IgG heavy chain from anti-FLAG M2 affinity resin. The experiments in (A–C, E) were repeated three independent times.
For peptide pull-down assays, biotinylated FAN1 peptides were incubated with Strep-Tactin® XT 4Flow® resin (IBA LifeScience) at room temperature for 30 minutes and washed four times with 0.1% Triton-PBS and two times with HNE buffer (20 mM HEPES pH 7.5, 0.2 mM EDTA, 0.5% NP-40, 150 mM NaCl, 0.5 mM DTT, 0.1% BSA, 0.5 mM PMSF). […] Beads were then washed three times with HNE buffer, once with TEN300 (20 mM Tris-HCl pH 7.4, 0.1 mM EDTA and 300 mM NaCl) and once with TEN100 buffer. Complexes were boiled in SDS sample buffer and analysed by SDS–PAGE followed by immunoblotting.
Figure S3 (Related to Figure 2). USP7 contacts FAN1 via its UBL domain. […]
Inputs and recovered MBP-His-FAN1 were analysed by immunoblotting. (C) Sequences of the biotinylated 13-mer FAN1-derived UBL peptides. The corresponding amino acids are indicated. Key residues are highlighted in bold. (C and D) Biotinylated FAN1 UBL peptides (10 µg) were immobilized on Strep-Tactin® XT 4Flow® resin and incubated with recombinant purified His-USP7. Inputs and recovered His-USP7 were analysed by immunoblotting. […]
The experiments in (A-E) were repeated three independent times.

[1] = system: cellular ubiquitin conjugates; assay: cellular ubiquitin conjugates after UAE inhibition; type: cell-based; settings: HEK293T cells, 10 μM for 2 h
Method: (§1) Figure S1 (related to Figure 1). […]
ubiquitin. (A) HEK293eGFP-FAN1 cells were transfected either with non-targeting (Ctrl) or the indicated siRNA oligos. 24 h later, GFP-FAN1 expression was induced with Dox (100 ng/ml). 24 h post induction, cells were lysed and whole-cell extracts were subjected to GFP-Trap resin. Inputs and recovered protein complexes were analysed by immunoblotting. (B) HEK293 cells were transfected with either e.v. or GFP-FAN1-wt expressing constructs. 48 h later, cells were lysed and whole-cell extracts were incubated with a FAN1-derived 60-mer peptide (aa 118 to 177) for 2 h and subjected to GFP-Trap resin. Inputs and recovered protein complexes were analysed by immunoblotting. (C) HEK293T cells were transfected with either e.v. or GFP-FAN1-wt expressing constructs. 48 h later, cells were either mock-treated (-) or treated (+) with TAK-243 (10 μM) for 2 h, lysed and whole-cell extracts were subjected to GFP-Trap resin. Inputs and recovered protein complexes were analysed by immunoblotting. The experiments in (A-C) were repeated three independent times.
(1 picture or pasted object on this page, not shown here)

FAN1-USP7 = assay: GFP-Trap co-IP after UAE inhibition, FAN1-USP7 binding; type: cell-based, human; settings: HEK293T cells, 10 μM for 2 h
Method: Cells were lysed in NP-40 buffer [50 mM tris-HCl (pH 7.5), 120 mM NaCl, 1 mM EDTA, 6 mM EGTA, 15 mM sodium pyrophosphate, and 1% NP-40, supplemented with phosphatase inhibitors (20 mM NaF and 1 mM Na3VO4) and protease inhibitors (1 mM benzamidine, 0.1 mM PMSF and cOmplete™ Protease Inhibitor Cocktail)], incubated with Benzonase (Merck) for at least 30 min at 4 °C, and clarified by centrifugation. Between 1 and 3 mg of lysates were incubated with anti-FLAG M2 (Sigma-Aldrich) or ChromoTek GFP-Trap® Agarose resin (Proteintech) for 2 h or overnight at 4 °C. The beads were then washed three times with NP-40 buffer and once with TEN100 buffer. Retrieved protein complexes were boiled in SDS sample buffer and analysed by SDS-PAGE followed by immunoblotting.
as §1
ubiquitin. (A) HEK293eGFP-FAN1 cells were transfected either with non-targeting (Ctrl) or the indicated siRNA oligos. 24 h later, GFP-FAN1 expression was induced with Dox (100 ng/ml). 24 h post induction, cells were lysed and whole-cell extracts were subjected to GFP-Trap resin. Inputs and recovered protein complexes were analysed by immunoblotting. (B) HEK293 cells were transfected with either e.v. or GFP-FAN1-wt expressing constructs. […] Inputs and recovered protein complexes were analysed by immunoblotting. […] Inputs and recovered protein complexes were analysed by immunoblotting. […]

USP7 binding of biotinylated FAN1 UBL peptide (USP7): exhibited detectable USP7 binding
Compound: Biotin-SLASKLSRKYVKA-NH2 [UBL2 (12mer), biotinylated FAN1-derived 13mer UBL peptide with 158-KLSRK-162]

USP7 binding of biotinylated FAN1 peptide (USP7): weak USP7 binding
Compound: Biotin-PLEQGSSCNGPG-NH2 [TRAF4 (12mer), biotinylated 12mer FAN1 peptide containing the 358-EQGS-361 motif]

USP7 binding of biotinylated FAN1 UBL peptide (USP7): did not abolish USP7 association
USP7 binding of biotinylated FAN1 UBL peptide (USP7; listed as K158A/K162A ‘UBL2’ mutant peptide): no reduction in USP7 binding
Compound: Biotin-SLASALSRAYVKA-NH2 [UBL2 2KA (12mer), FAN1 UBL2 K158A/K162A (2KA) 13mer peptide]

The next lines start with the compound.

Compound: {FITC-Ahx}-SSAQSSKS [TRAF3 P181A (8mer), FITC-labelled FAN1-derived 8mer peptide, P181A]
binding to the USP7 TRAF domain (FP) (USP7 TRAF (aa 2-207)): did not abolish the interaction

Compound: {FITC-Ahx}-SSPQSSKS [TRAF3 (8mer), FITC-labelled FAN1-derived 8mer peptide, wild-type]
binding to the USP7 TRAF domain (FP) (USP7 TRAF (aa 2-207)): bound efficiently to the USP7 TRAF domain

Compound: {FITC-Ahx}-SSPQSAKS [TRAF3 S184A (8mer), FITC-labelled FAN1-derived 8mer peptide, S184A]
binding to the USP7 TRAF domain (FP) (USP7 TRAF (aa 2-207)): markedly impaired binding

Compound: Biotin-AGSSPQSAKSTV-NH2 [TRAF3 S184A (12mer), biotinylated 12mer FAN1 peptide, S184A]
USP7 binding of biotinylated FAN1 peptide (USP7; listed as S184A ‘TRAF3’ mutant peptide): failed to bind
USP7 binding of biotinylated FAN1 peptide (USP7; listed as serine residue 184 to alanine (S184A)): abrogated USP7 binding

Compound: NS(=O)(=O)OC[C@H]1C[C@@H](Nc2ccnc3cc(-c4cccc(SC(F)(F)F)c4)nn23)[C@H](O)[C@@H]1O [TAK-243]
cellular ubiquitin conjugates [1]: depletion of cellular ubiquitin conjugates
FAN1-USP7 binding (FAN1-USP7): did not impact FAN1-USP7 binding
